For data set [1], the target named is T1, human angiotensin II AT1 receptor (Homo sapiens, UniProt P30556).
T1 sequence (P30556 1-359): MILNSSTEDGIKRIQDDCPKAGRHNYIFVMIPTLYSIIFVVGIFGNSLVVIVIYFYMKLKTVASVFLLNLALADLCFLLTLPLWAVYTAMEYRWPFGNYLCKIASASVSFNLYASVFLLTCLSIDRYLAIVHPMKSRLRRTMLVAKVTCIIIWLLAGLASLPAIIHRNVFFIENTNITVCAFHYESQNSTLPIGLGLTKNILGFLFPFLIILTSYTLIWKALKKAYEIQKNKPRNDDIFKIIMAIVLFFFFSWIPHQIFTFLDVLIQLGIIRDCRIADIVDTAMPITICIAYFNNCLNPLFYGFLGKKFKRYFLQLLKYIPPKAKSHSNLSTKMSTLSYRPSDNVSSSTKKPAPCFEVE
The experiment in a line: human angiotensin II AT1 receptor (antagonist radioligand) binding assay. The note with it: [125I][Sar1-Ile8] angiotensin-II radioligand, cell membrane homogenates. The protocol:
Cell membrane homogenates (8 µg protein) are incubated for 120 min at 37° C. with 0.05 nM [125I][Sar1-Ile8] angiotensin-II in the absence or presence of the test compounds in a buffer containing 50 mM Tris-HCl (pH 7.4), 5 mM MgCl2, 1 mM EDTA and 0.1% BSA. Nonspecific binding is determined in the presence of 10 µM angiotensin II. Following incubation, the samples solution are filtered rapidly under vacuum through glass fiber filters (GF/B, Packard) presoaked with 0.3% PEI and rinsed several times with ice-cold 50 mM Tris-HCl using a 96-sample cell harvester (Unifilter, Packard). The filters are dried then counted for radioactivity in a scintillation counter (Topcount, Packard) using a scintillation cocktail (Microscint 0, Packard).
The results are expressed as a percent inhibition of the control radioligand specific binding. Saralasin is used as the standard reference compound, which is tested in each experiment at several concentrations to obtain a competition curve from which its IC50 is calculated.

For the next data set, the system named is NASH mice. Kind of data set: in vivo efficacy in STAM mouse model of non-alcoholic steatohepatitis. Details: species or system C57BL/6 mice. The protocol:
Pathogen-free 14 day-pregnant C57BL/6 mice were obtained from Japan SLC, Inc.(Japan); NASH was established in male mice by a single subcutaneous injection of 200 μg streptozotocin (STZ, Sigma, USA) 2 days after birth and feeding with a high fat diet (CLEA Japan Inc., Japan) ad libitum after 4 weeks of age (day 28 ± 2). NASH mice were randomized into 8 groups of 8 mice and 2 groups of 4 mice at 6 weeks of age (day 42 ± 2) the day before the start of treatment based on their body weight. Littermate control mice without STZ priming (n=8) were fed with normal diet ad libitum and set up for control purpose (see below for details on grouping). […] Samples would not be collected from euthanized animals. Individual body weight was measured daily during the treatment period. […] Four NASH mice were intraperitoneally administered vehicle supplemented with D-Cy5 at a dose of 50 mg/kg single shot at 6 weeks of age; • Group 11 (D-Cy5-9 wks): Four NASH mice were intraperitoneally administered vehicle supplemented with D-Cy5 at a dose of 50 mg/kg single shot at 9 weeks of age. Mice in group 10 and 11 were sacrificed at 6 and 9 weeks of age 48 hours after the administration. Mice in group 1 - 9 were sacrificed at 9 weeks of age for the following assay, group 10 and 11 were sacrificed at 6 and 9 weeks of age for the following assays. Individual liver weight were measured and liver-to-body weight ratio were calculated. Non-fasting serum ALT levels were quantified by FUJI DRI CHEM (Fujifilm, Japan). Liver triglyceride levels were quantified by Triglyceride E-test kit (FUJIFUILM Wako Pure Chemical Corporation, Japan). HE staining and estimation of NAFLD Activity score was carried out using routine methods. Sirius-red staining and estimation of the percentage of fibrosis area was also calculated. After completion of the in-life portion of the study, the following samples were collected for further analyses or shipping. […] Dissect the animal and collect the tissue samples (right and left kidneys, liver) in sequential order. Sample thickness was less than approximately 5 mm to ensure proper fixation, with a flat surface across the area of interest. Put the samples into 4% NBF for fixation immediately. Fix the samples in 4% NBF overnight at room temperature.

The nature of data set [2]: in vitro drug release under plasma (pH7.4, PBS) and intracellular conditions (pH5.5, esterase). It counts as in vitro ADME. The note with it: intracellular conditions (pH5.5, esterase), 18 days. Here is the method:
The drug release profile of both the conjugates was evaluated under plasma (pH7.4, PBS) and intracellular conditions (pH5.5, esterase).

Data set [3] in a line: water solubility of dendrimer conjugates.
Another data set deals with CSF1R (Homo sapiens, UniProt P07333). Kind of data set: binding affinity towards CSF1R.
[4] abbreviates: NASH mice, significantly compared to free OCA and vehicle control (p < 0.05, n=8).

pKd: −log10 of the molar value.

One may read the pKd as −log10 of the Kd, conventionally taken in molar units. A high value points to a low Kd.

CSF1R, sequence (P07333 20-972, species assumed): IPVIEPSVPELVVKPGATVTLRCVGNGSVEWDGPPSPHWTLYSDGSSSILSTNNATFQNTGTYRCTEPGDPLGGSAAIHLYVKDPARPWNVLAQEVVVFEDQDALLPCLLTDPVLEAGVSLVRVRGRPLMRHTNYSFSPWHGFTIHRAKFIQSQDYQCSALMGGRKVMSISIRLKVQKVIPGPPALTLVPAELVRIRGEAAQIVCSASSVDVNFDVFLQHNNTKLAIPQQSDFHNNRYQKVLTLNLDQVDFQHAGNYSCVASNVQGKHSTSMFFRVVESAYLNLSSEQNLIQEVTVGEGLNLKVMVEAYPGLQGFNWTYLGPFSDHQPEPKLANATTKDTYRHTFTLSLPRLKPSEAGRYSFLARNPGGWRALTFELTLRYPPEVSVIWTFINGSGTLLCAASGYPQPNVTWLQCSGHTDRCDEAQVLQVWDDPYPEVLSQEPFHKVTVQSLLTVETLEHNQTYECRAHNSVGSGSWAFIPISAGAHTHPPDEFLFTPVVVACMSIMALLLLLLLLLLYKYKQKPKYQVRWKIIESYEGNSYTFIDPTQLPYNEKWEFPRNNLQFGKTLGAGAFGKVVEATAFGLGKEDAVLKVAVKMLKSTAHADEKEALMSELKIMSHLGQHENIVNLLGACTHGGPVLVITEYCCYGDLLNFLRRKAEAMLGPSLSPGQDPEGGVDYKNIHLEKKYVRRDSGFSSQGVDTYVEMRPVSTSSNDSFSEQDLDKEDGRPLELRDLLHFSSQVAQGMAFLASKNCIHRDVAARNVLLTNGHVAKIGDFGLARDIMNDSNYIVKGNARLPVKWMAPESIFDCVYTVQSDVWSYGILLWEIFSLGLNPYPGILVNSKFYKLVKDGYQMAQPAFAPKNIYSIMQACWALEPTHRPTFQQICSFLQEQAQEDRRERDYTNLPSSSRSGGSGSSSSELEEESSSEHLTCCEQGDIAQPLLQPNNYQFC

“telmisartan-ester-PEG4 azide [Telmisartan ester linker]”: the pKd in data set [1] is 7.55.
In the case of `CCCc1nc2c(C)cc(-c3nc4ccccc4n3C)cc2n1Cc1ccc(-c2ccccc2C(=O)O)cc1` [Telmisartan, reference compound], in the data set with NASH mice (NASH mice at nine weeks of age, compared to vehicle-treated NASH mice), the liver weight result is recorded as “reduce liver weight”.
“dendrimer-triantennary GalNAc(4-5)-telmisartan (7-8) [D-TelB]” showed a drug release in data set [2] of 94%.
For “dendrimer-GalNAc (4-5)-telmisartan amide (6-7) [D-Tel]”, the drug release entry in data set [2] is on record as “less than 10%”. The compound further had a water solubility in data set [3] of 60 to 70 mg/mL.
The compound `Cc1ccc(NC(=O)c2ccc(CN3CCN(CCOCCOCCOCCN=[N+]=[N-])CC3)c(C(F)(F)F)c2)cc1NC(=O)c1cccc(-c2cnn(C)c2)c1` [CSF1R-E analogue 1] gave a pKd on CSF1R of approximately 7.89.
In turn, “telmisartan-PEG3-amide azide [Telmisartan amide linker]” showed a pKd in data set [1] of 7.13.
As to “dendrimer-GalNAc(4-5)-Obeticholic acid conjugate (6-7) [D-OCA]”, the “liver function (biochemical analysis)” value in the data set on NASH mice (NASH mice) is “improved liver function”. In addition, in the data set on NASH mice (setting [4]), the NAFLD score entry is listed as “decreases”, the hepatocyte ballooning entry was “decreases” and the liver fibrosis result is “decreases”. Moreover, the fibrosis score result in the data set on NASH mice (high dose D-OCA (315 mg/kg i.p. every other day), compared to free OCA group) is listed as “improved reduction”. Besides, in the data set on NASH mice (low dose D-OCA (63 mg/kg i.p. every other day)), the stenosis score result is listed as “significant reduction”.

The values are drawn from patent US20230233696A1, “TRIANTENNARY N-ACETYLGALACTOSAMINE MODIFIED HYDROXYL POLYAMIDOAMINE DENDRIMERS AND METHODS OF USE THEREOF” (Ashvattha Therapeutics, Inc., priority 2019, published 2023).
